How the values were obtained:
[1] = molecular target: T1, Tyrosine-protein kinase BTK (Homo sapiens, UniProt Q06187); test: Inhibition of recombinant full-length human N-terminal GST-fused BTK (2 to 659 residues) expressed in baculovirus expression system using biotin-labelled peptide as substrate measured after 50 mins by TR-FRET assay
[2] = molecular target: T1, Tyrosine-protein kinase BTK; test: Inhibition of recombinant full-length human N-terminal GST-fused BTK (2 to 659 residues) expressed in baculovirus expression system at 1 uM using biotin-labelled peptide as substrate measured after 50 mins by TR-FRET assay relative to control
[3] = tested on: Raji; test: Antiproliferative activity against human Raji cells after 48 hrs by CCK8 assay; assay type: functional, cell-based
[4] = tested on: Ramos; test: Antiproliferative activity against human Ramos cells after 48 hrs by CCK8 assay; assay type: functional, cell-based
[5] = Antiproliferative activity against human Mino cells after 72 hrs by CellTiter-Glo luminescent cell viability assay; assay type: functional, cell-based
[6] = Cytotoxicity against human PBMC assessed as inhibition of cell proliferation at 30 uM after 72 hrs by CellTiter-Glo luminescent cell viability assay relative to control; assay type: cell-based; settings: PBMC (peripheral blood mononuclear cells)
[7] = Antiproliferative activity against human WSU-DLCL2 cells after 72 hrs by CellTiter-Glo luminescent cell viability assay; assay type: functional, cell-based; settings: WSUDLCL2, 72 h
[8] = tested on: SU-DHL-6; test: Antiproliferative activity against human SU-DHL6 cells after 72 hrs by CellTiter-Glo luminescent cell viability assay; assay type: functional, cell-based; settings: SU-DHL-6, 72 h
[9] = tested on: DOHH-2; test: Antiproliferative activity against human DOHH2 cells after 72 hrs by CellTiter-Glo luminescent cell viability assay; assay type: functional, cell-based; settings: DOHH-2, 72 h
[10] = tested on: PBMC; test: Cytotoxicity against human PBMC after 72 hrs by CellTiter-Glo luminescent cell viability assay; assay type: cell-based

T1 sequence (Q06187 whole entry, the tested form may be a part): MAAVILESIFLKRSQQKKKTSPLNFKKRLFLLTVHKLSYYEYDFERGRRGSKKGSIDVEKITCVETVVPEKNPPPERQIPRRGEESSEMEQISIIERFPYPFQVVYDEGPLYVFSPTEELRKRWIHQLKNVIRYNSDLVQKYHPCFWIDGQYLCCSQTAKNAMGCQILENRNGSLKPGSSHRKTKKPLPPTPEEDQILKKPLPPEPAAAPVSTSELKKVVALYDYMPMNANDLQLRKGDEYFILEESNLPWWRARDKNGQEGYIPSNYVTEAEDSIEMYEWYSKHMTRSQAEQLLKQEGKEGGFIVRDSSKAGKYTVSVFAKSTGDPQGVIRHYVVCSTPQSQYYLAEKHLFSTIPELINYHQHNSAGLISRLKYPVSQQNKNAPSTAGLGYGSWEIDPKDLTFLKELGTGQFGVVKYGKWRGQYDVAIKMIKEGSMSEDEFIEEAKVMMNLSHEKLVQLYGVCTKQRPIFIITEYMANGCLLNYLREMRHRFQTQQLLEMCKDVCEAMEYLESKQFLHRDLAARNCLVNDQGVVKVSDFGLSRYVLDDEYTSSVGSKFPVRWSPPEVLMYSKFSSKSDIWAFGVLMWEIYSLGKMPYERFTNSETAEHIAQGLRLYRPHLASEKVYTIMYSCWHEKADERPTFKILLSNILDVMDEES

Structure (SMILES): Nc1ncnc2c1c(C#CCOc1ccccc1)nn2[C@@H]1CCCN(C(=O)/C=C/CBr)C1
- IC50 [1]: 13.2 nM
- inhibition [2]: 92.2%

Structure (SMILES): CC(C)/C=C(\C#N)C(=O)N1CCC[C@@H](n2nc(C#CCOc3ccccc3)c3c(N)ncnc32)C1
- IC50 [3]: > 40000 nM
- IC50 [1]: 9.7 nM
- IC50 [4]: > 40000 nM
- inhibition [2]: 99.6%

Structure (SMILES): C=CC(=O)N1CC[C@@H](n2nc(C#CCOc3ccccc3)c3c(N)ncnc32)C1
- IC50 [1]: 18.8 nM
- inhibition [2]: 96.1%

Structure (SMILES): C=CC(=O)N1CCC[C@@H](n2nc(-c3ccc(Oc4ccccc4)cc3)c3c(N)ncnc32)C1 [IBRUTINIB]
- IC50 [5]: 3150 nM
- inhibition at 72 h, 30 µM [6]: 69%
- IC50 [7]: 487 nM
- IC50 [8]: 874 nM
- IC50 [9]: 33.4 nM

Structure (SMILES): C=CC(=O)N(C)CCn1nc(C#CCOc2ccccc2)c2c(N)ncnc21
- inhibition [2]: 48.5%

Structure (SMILES): CC#CC(=O)N1CCC[C@@H](n2nc(C#CCOc3ccccc3)c3c(N)ncnc32)C1
- IC50 [1]: 28.3 nM
- inhibition [2]: 99.7%

Structure (SMILES): Nc1ncnc2c1c(C#CCOc1ccccc1)nn2[C@@H]1CCCN(C(=O)/C=C/Cn2cncn2)C1
- inhibition [2]: 76.3%

Structure (SMILES): C=CC(=O)N[C@H]1CC[C@@H](n2nc(C#CCOc3ccccc3)c3c(N)ncnc32)CC1
- IC50 [1]: 14.8 nM
- inhibition [2]: 101%

Structure (SMILES): C=C(F)C(=O)N1CCC[C@@H](n2nc(C#CCOc3ccccc3)c3c(N)ncnc32)C1
- inhibition [2]: 73.8%

Structure (SMILES): C=CC(=O)N1CCC[C@@H](n2nc(C#CCOc3ccccc3)c3c(N)ncnc32)C1
- IC50 [5]: 3730 nM
- IC50 [10]: > 30000 nM
- IC50 [7]: 395 nM
- IC50 [8]: 1630 nM
- IC50 [9]: 18.1 nM

Structure (SMILES): C=CC(=O)N1CCC[C@H]1Cn1nc(C#CCOc2ccccc2)c2c(N)ncnc21
- inhibition [2]: 42.9%

Structure (SMILES): C=CS(=O)(=O)N1CCC[C@@H](n2nc(C#CCOc3ccccc3)c3c(N)ncnc32)C1
- IC50 [3]: > 40000 nM
- IC50 [1]: 4.2 nM
- IC50 [4]: > 40000 nM
- inhibition [2]: 104%

Structure (SMILES): C=CC(=O)NCCn1nc(C#CCOc2ccccc2)c2c(N)ncnc21
- inhibition [2]: 27.1%

Structure (SMILES): C/C=C(\C#N)C(=O)N1CCC[C@@H](n2nc(C#CCOc3ccccc3)c3c(N)ncnc32)C1
- IC50 [3]: 17600 nM
- IC50 [1]: 7.8 nM
- IC50 [4]: 25800 nM
- inhibition [2]: 98.5%

Structure (SMILES): Nc1ncnc2c1c(C#CCOc1ccccc1)nn2[C@@H]1CCCN(C(=O)/C=C/CN2CCOCC2)C1
- inhibition [2]: 86.1%

Structure (SMILES): C#CC(=O)N1CCC[C@@H](n2nc(C#CCOc3ccccc3)c3c(N)ncnc32)C1
- IC50 [5]: 67.9 nM
- IC50 [10]: 4120 nM
- IC50 [3]: 2370 nM
- IC50 [1]: 11.1 nM
- IC50 [4]: 9940 nM
- IC50 [7]: 14.1 nM
- IC50 [8]: 26.6 nM
- IC50 [9]: 12.8 nM
- inhibition [2]: 102%

Structure (SMILES): N#C/C(=C\C1CC1)C(=O)N1CCC[C@@H](n2nc(C#CCOc3ccccc3)c3c(N)ncnc32)C1
- IC50 [5]: 8850 nM
- IC50 [10]: > 30000 nM
- IC50 [3]: 2090 nM
- IC50 [1]: 11.1 nM
- IC50 [4]: 9060 nM
- IC50 [7]: > 10000 nM
- IC50 [8]: > 10000 nM
- IC50 [9]: > 10000 nM
- inhibition [2]: 97.1%
